Laboratory results published in patent publication US7947839B2, “Heterocyclic-substituted bis-1,8 naphthalimide compounds, antibody drug conjugates, and methods of use” (Genentech, Inc., priority 2004, dated 2011).
Where a name gives a salt, the structure may show the parent alone. Read-outs that look alike come from different tables or passages of the source.

Test system: BT474, H460, HCT116, HUVEC, LNCAP, MCF7, and PC3 cells
Test: free test compound cell-based assay, 7 tumor cell panel (CellTiter-Glo)
Set-up: species or system Human
Settings: NSA = no significant activity; for IC50: Homo sapiens
Experimental: Heterocyclic-substituted bis-1,8-naphthalimide compounds of Formula XV in Table 2 were prepared and tested for in vitro activity against a panel of tumor cells (Example 110).
Alternatively, the efficacy of compounds of the invention can be assayed by the following free test compound cell-based assay protocol
• 1. Prepare each cell line (BT474, H460, HCT116, HUVEC, LNCaP, MCF7, and PC3) at 1 k cells/well in separate plates with Complete Media (CM): RPM1 […]+10% FBS (Fetal Bovine Serum)+1% of 200 mM L-Glutamine. Plate number depends on test compounds provided by submitter. • 2. Detach prospective cell lines by first removing the media. When the flask is empty of media, begin rinsing out individual flasks with 5 mL sterile PBS. Move the PBS around within the flask to rinse well. Decant the PBS and add aseptically 5 mL of Accutase/flask. Make sure the Accutase covers the entire flask. • 3. Immediately place the flask(s) into a 37° C. incubator to allow cells to detach for 5-7 minutes. • 4. Post 5-7 minutes, remove flask(s) from the incubator and begin harvesting the detached cells using a serological pipette. Pipette up and down along the back of the flask to facilitate cell detachment. Pipette the Accutase containing cells into a sterile 50 mL conical tube/cell line. Pipette 10 mL of sterile PBS and re-rinse the flask to obtain remaining cells and dispense it into the same 50 mL conical tube/cell line for a total volume of 15 mL/tube/cell line. • 5. After each cell line has been allocated to a designated tube, take out 100 μL/tube/cell line for the cell counts. While the cell counts are being calculated, centrifuge the 50 mL tubes at 1000 rpm at 4° C. with a high brake. • 6. When centrifugation and cell calculations are completed, decant excess liquid and resuspend the cell pellet(s) using 5 mL CM, depending on calculations. • 7. Using a 5 mL syringe and an 18 G ½ needle, strain the cells to help prevent aggregation. Further strain by using a […] cell filter to block out any huge aggregates not broken down by the needle. • 8. After cell straining and filtering, take out calculated amount for a 1 k cells/well into fresh media. Take the media containing cells and load 100 μL/well into a bottom tissue culture treated flat 96 well plate. • 9. Immediately place in a 37° C. incubator overnight to allow the cells to adhere to the tissue culture treated 96 well plates. Day 2: • 1. Test compounds are submitted at 10 mM in sterile DMSO. • 2. DMSO as negative control and a positive standard are used in every assay! • 3. Prepare a 1:1000 fold dilution for each test compound, control, and standard for a 10e-5 M starting point. Do a 1:100 first, then a 1:10. • 4. Prior to diluting samples, vortex the samples and the controls for a homogeneous mixture. Note any sample that will not solubilize and/or stay in suspension. • 5. When the samples are at 10e-5 M, vortex each tube well and spin down fluid to ensure sample remains in tacked. Manual Dilution Protocol: • 1. After the tubes are at a final 1:1000 (10e-5 M) dilution, load the first column of the microtube box with the prospective sample. Load DMSO and positive control in singlets. The test compounds are loaded in duplicates. Load the remaining empty microtube racks with 540 μL of media to prepare for a serial dilution of 1:10. • 2. Agitate and transfer 60 μL from column 1 into successive wells containing 540 μL of media (1:10). Therefore, transfer 60 μL of column 1 into 540 μL of column 2. Resuspend column 2 about 10-15×'s then transfer 60 μL from column 2 to column 3 etc. Automated Dilution Protocol: • 1. Once the tubes are at a final 1:1000 (10e-5 M), load the first column of the microtube box with the prospective sample. Load DMSO and positive control in singlets. The compounds are loaded in duplicates. Load the remaining empty microtube racks manually with 540 μL of media to prepare for the automated serial dilution of 1:10 (see above diagram). • 2. […]

[1] = average linear IC50 across the 7 tumor cell panel, read-out: Avg.
[2] = average log IC50 across the 7 tumor cell panel, read-out: Avg. (log IC50) (converted)

| SMILES | IC50 [1] [µM] | IC50 [2] [µM] | Avg. (nM) (average linear IC50 across the 7 tumor cell panel) | Avg. (log IC50) (average log IC50 across the 7 tumor cell panel) |
| --- | --- | --- | --- | --- |
| O=C1c2cccc3c(N4CCOCC4)ccc(c23)C(=O)N1CCNCCCN(CCCS)CCN1C(=O)c2cccc3c(N4CCOCC4)ccc(c23)C1=O [Compound 55a, N, N′-(N-3-mercaptopropyl, bis-aminoethyl-1,3-propanediamine)-bis-4-morpholino-1,8 naphthalimide] | 0.0575 | 0.0575 | – | – |
| Nc1ccc2c3c(cccc13)C(=O)N(CCNCCCNCCN1C(=O)c3cccc4c(N5CCOCC5)ccc(c34)C1=O)C2=O [Compound 56b, N, N′-(bis-aminoethyl-1,3-propanediamine)-4-amino, 4-morpholino-1,8 naphthalimide] | 0.0186 | 0.0186 | – | – |
| O=C(CN1C(=O)c2cccc3c(N4CCOCC4)ccc(c23)C1=O)NCCNCCCN1C(=O)c2cccc3c(N4CCOCC4)ccc(c23)C1=O [Compound 38] | 1.82 | 1.82 | – | – |
| CC(=O)c1ccc2c3c(cccc13)C(=O)N(CCNCCCNCCN1C(=O)c3cccc4c(N5CCOCC5)ccc(c34)C1=O)C2=O [Compound 62, N, N′-(bis-aminoethyl-1,3-propanediamine)-4-acetyl,4-morpholino-1,8 naphthalimide] | 0.00457 | 0.00457 | – | – |
| CC(=O)N1CCN(c2ccc3c4c(cccc24)C(=O)N(CCNCCCNCCN2C(=O)c4cccc5c(N(C)C)ccc(c45)C2=O)C3=O)CC1 [Compound 64, N, N′-(bis-aminoethyl-1,3-propanediamine)-4-(4-acetylpiperazino)-4-dimethylamino-1,8 naphthalimide] | 0.00182 | 0.00182 | – | – |
| O=C(CN1C(=O)c2cccc3c(N4CCOCC4)ccc(c23)C1=O)NCCCNC(=O)CN1C(=O)c2cccc3c(N4CCOCC4)ccc(c23)C1=O [Compound 34, N, N′-(bis-2-acetamido-1,3-propanediamine)-bis-4-morpholino-1,8 naphtbalimide] | 2.19 | 2.19 | – | – |
| CN1CCN(c2ccc3c4c(cccc24)C(=O)N(CCNCCCNCCN2C(=O)c4cccc5c(N6CCN(C)CC6)ccc(c45)C2=O)C3=O)CC1 [Compound 24a] | 0.00071 | 0.000708 | – | – |
| NCC(=O)N(CCCNCCN1C(=O)c2cccc3c(N4CCOCC4)ccc(c23)C1=O)CCN1C(=O)c2cccc3c(N4CCOCC4)ccc(c23)C1=O [Compound 54d, N, N′-(N-glycyl, bis-aminoethyl-1,3-propanediamine)-bis-4-morpholino-1,8 naphthalimide] | 0.324 | 0.324 | – | – |
| O=C(CCS)N(CCCNCCN1C(=O)c2cccc3c(N4CCOCC4)ccc(c23)C1=O)CCN1C(=O)c2cccc3c(N4CCOCC4)ccc(c23)C1=O [Compound 55c, N, N′-(N-3-mercaptopropionyl, bis-aminoethyl-1,3-propanediamine)-bis-4-morpholino-1,8 naphthalimide] | 3.71 | 3.72 | – | – |
| O=C1c2cccc3c(-n4ccnc4)ccc(c23)C(=O)N1CCNCCCNCCN1C(=O)c2cccc3c(-n4ccnc4)ccc(c23)C1=O [Compound 24b, N, N′-(bis-aminoethyl-1,3-propanediamine)-bis-(4-N-imidazolyl)-1,8 naphthalimide] | 0.00041 | 0.000407 | – | – |
| O=C1c2cccc3c(N4CCNCC4)ccc(c23)C(=O)N1CCNCCCNCCN1C(=O)c2cccc3c(N4CCNCC4)ccc(c23)C1=O [Compound 58a, N, N′-(bis-aminoethyl-1,3-propanediamine)-bis-4-piperazino-1,8 naphthalimide] | 0.0017 | 0.0017 | – | – |
| O=C(CN1C(=O)c2cccc3c(N4CCOCC4)ccc(c23)C1=O)NCCCNCCN1C(=O)c2cccc3c(N4CCOCC4)ccc(c23)C1=O [Compound 41] | 0.00339 | 0.00339 | – | – |
| O=C1c2cccc3c(N4CCNCC4)ccc(c23)C(=O)N1CCN1C=[N+](CCN2C(=O)c3cccc4c(N5CCNCC5)ccc(c34)C2=O)CCC1 [Compound 59, N, N′-(bis-aminoetbyl-1,4,5,6-tetrahydropyrimidinium)-bis-4-piperazino-1,8 naphthalimide trifluoroacetate salt] | 0.00151 | 0.00151 | – | – |
| O=C1c2cccc3c(N4CCOCC4)ccc(c23)C(=O)N1CCN1C=[N+](CCN2C(=O)c3cccc4c(N5CCOCC5)ccc(c34)C2=O)CCC1 [Compound 57, N, N′-(bis-aminoethyl-1,4,5,6-tetrahydropyrimidinium)-bis-4-morpholino-1,8 naphthalimide] | 0.468 | 0.468 | – | – |
| CCOC(=O)N(CCCNCCN1C(=O)c2cccc3c(N4CCOCC4)ccc(c23)C1=O)CCN1C(=O)c2cccc3c(N4CCOCC4)ccc(c23)C1=O [Compound 54f, N, N′-(N-carboethoxy, bis-aminoethyl-1,3-propanediamine)-bis-4-morpholino-1,8 naphthalimide] | 0.692 | 0.692 | – | – |
| CC(=O)N(CCCNCCN1C(=O)c2cccc3c(N4CCOCC4)ccc(c23)C1=O)CCN1C(=O)c2cccc3c(N4CCOCC4)ccc(c23)C1=O [Compound 54c, N, N′-(N-acetyl, bis-aminoethyl-1,3-propanediamine)-bis-4-morpholino-1,8 naphthalimide] | 0.191 | 0.191 | – | – |
| O=C1c2cccc3c(O)ccc(c23)C(=O)N1CCNCCCNCCN1C(=O)c2cccc3c(-n4ccnc4)ccc(c23)C1=O [Compound 65, N, N′-(bis-aminoethyl-1,3-propanediamine)-4-(N-imidazolyl)-4-hydroxyl-1,8 naphthalimide] | 0.288 | 0.288 | – | – |
| O=C1c2cccc3c(N4CCOCC4)ccc(c23)C(=O)N1CCOCCOCCN1C(=O)c2cccc3c(N4CCOCC4)ccc(c23)C1=O [Compound 54b, N, N′-(3,6-dioxaoctanylene)-bis-4-morpholino-1,8 naphthalimide] | – | – | NSA | NSA |
| O=C1c2cccc3c(N4CCOCC4)ccc(c23)C(=O)N1CCNCCCN(CCN1C(=O)c2cccc3c(N4CCOCC4)ccc(c23)C1=O)C(=O)C(F)(F)F [Compound 54h, N, N′-(N-trifluoromethylacetyl, bis-aminoethyl-1,3-propanediamine)-bis-4-morpholino-1,8 naphthalimide] | 0.309 | 0.309 | – | – |
| O=C1c2cccc3cc([N+](=O)[O-])cc(c23)C(=O)N1CCNCCCNCCN1C(=O)c2cccc3c(N4CCOCC4)ccc(c23)C1=O [Compound 56a, N, N′-(bis-aminoethyl-1,3-propanediamine)-3-nitro, 4-morpholino-1,8 naphthalimide] | 0.00162 | 0.00162 | – | – |
| CC(=O)N1CCN(c2ccc3c4c(cccc24)C(=O)N(CCNCCNCCN2C(=O)c4cccc5c(N6CCN(C(C)=O)CC6)ccc(c45)C2=O)C3=O)CC1 [Compound 63a, N, N′-(bis-aminoethyl-1,2-ethanediamine)-bis 4-(4-acetylpiperazino)-1,8 naphthalimide] | 0.00447 | 0.00447 | – | – |
| O=C1c2cccc3c(N4CCOCC4)ccc(c23)C(=O)N1CCNCCCNCCN1C(=O)c2cccc3c(N4CCOCC4)ccc(c23)C1=O [Compound 20, N, N′-(bis-aminoethyl-1,3-propanediamine)-bis-4-morpholino-1,8 naphthalimide] | 0.00257 | 0.00257 | – | – |
| O=C1c2cccc3c(N4CCOCC4)ccc(c23)C(=O)N1CCNCCNCCN1C(=O)c2cccc3c(N4CCOCC4)ccc(c23)C1=O [Compound 54a, N, N′-(bis-aminoethyl-1,2-ethanediamine)-bis-4-morpholino-1,8 naphthalimide] | 0.0229 | 0.0229 | – | – |
